# Reference: patent publication US20220280469A1, “PHARMACEUTICAL COMPOUND AND PREPARATION METHOD THEREFOR AND USE THEREOF” (priority 2019, published 2022)
# What was measured:
# [1] = test system: PANC-1 subcutaneous transplantation tumor; assay: Anti-tumor effect in PANC-1 subcutaneous transplantation tumor model; type: in vivo, BALB/c Nude mouse; conditions: 4 mg/kg cisplatin (effective dose), once a week, 4 times
# Procedure: The human pancreatic cancer cell strain PANC-1 was cultured in a DMEM high-glucose medium containing 10% FBS. Before being used, the cells were digested with pancreatin and centrifuged for 3 min at 800 r·min^−1 to remove the supernatant. The cells were resuspended in a serum-free DMEM medium, matrigel was added at a ratio of 1:1, and the number of the cells was adjusted to 5×10^6/mL. The cell suspension was inoculated subcutaneously to the right thigh at 100 μL/mouse. […] The tumor-bearing mice were randomly divided into 5 groups with 6 mice in each. […] The drugs were administered via tail vein injection. The administration was performed once a week, 4 times in total. The long (l) and short (r) diameters of the tumors were measured with a vernier caliper every other day to calculate tumor volume. All mice were sacrificed on day 11 after the administration cycle was completed, and they were dissected to get the tumors, which were then weighed. The tumor volume calculation formula was as follows: V=(l×r^2)/2.
# [2] = Pharmacokinetics and tumor targeting of Pt in tumor tissue of pancreatic cancer orthotopic transplantation model mice; type: in vivo, mouse; conditions: 8 mg/kg
# Procedure: Mouse pancreatic cancer cells transfected with luciferase reporter genes were used to prepare mouse pancreatic cancer orthotopic transplantation models. The tumor volume of the mice were determined by injecting […] into tail veins, and the mice with similar tumor volume were selected for evaluation of systemic PK and tumor-targeting property. […] Pharmacokinetic parameters were calculated using PK Solver 2.0.
# [3] = test system: MIA PaCa-2 pancreas orthotopic transplantation tumor; assay: Kaplan-Meier survival in MIA PaCa-2 pancreas orthotopic transplantation model; conditions: once every 7 days, three times
# Procedure: Pancreas of BALB/c nude mice was transplanted orthotopically with Mia paca-2 cells (reporter gene: luciferase) to prepare pancreatic cancer transplantation in situ models, and then the mice were randomly divided into 4 groups with 6 mice in each, and administered with drugs 10 days after the models were established. […] The drugs were administered once every 7 days, three times in total. The mice were weighed every other day, and the survival state of the mice was recorded. Kaplan-Meier survival curves were drawn to examine the influence of different drug treatments on the survival state of the mice.
smiles,measurement,setting,value
"N.N.[Cl][Pt][Cl] [cisplatin, cis-diamminedichloroplatinum]",body weight of the mice during the administration process,[1],remarkably decreased
same,"inhibition of PANC-1 subcutaneous transplantation tumor (tumor volume, tumor weight)",[1]; tail vein,no significant inhibition effect
same,ID% (drug amount at a tumor site x 100%/injected drug amount),[2],less than 5%
same,body weight of the mice in the whole treatment process,[3],significantly reduced
